Reference: paper PMC12131194, “Rational design, synthesis, and evaluation of novel polypharmacological compounds targeting NaV1.5, KV1.5, and K2P channels for atrial fibrillation” (The Journal of Biological Chemistry, 2025)

Tests used:
[1] = tested on: human atrial cardiomyocytes from patients with AF; experiment: Patch-clamp action potential recordings, atrial cardiomyocytes of atrial fibrillation patients; format: cell-based
Procedure: A total of 10 patients with sinus rhythm (SR) (N = 5) or atrial fibrillation (AF) (N = 5) undergoing open heart surgery for coronary artery bypass grafting, heart valve replacement or heart transplantation were included in the study (Table S7). A written informed consent was given by all patients. The study protocol involving human tissue samples was approved by the responsible Ethics Committee of the Medical Faculty of Heidelberg University (Germany; S-017/2013) and was conducted in accordance with the 1964 Declaration of Helsinki.
The right atrial human tissue samples were transported in chilled Ca^2+-free solution (100 mM NaCl, 10 mM KCl, 1.2 mM KH2PO4, 5 mM MgSO4, 50 mM taurine, 5 mM 3-(N-morpholino)propanesulfonic acid (MOPS), 30 mM 2,3-butanedione monoxime and 20 mM glucose, pH 7.0 with NaOH). After dissection into small chunks, the samples were rinsed for 5 minutes with calcium-free Tyrode's solution, which was oxygenated with 100% O2 at 37 °C. The samples were then digested with collagenase type I (288 U/ml; Worthington) and protease type XXIV (5 mg/ml; Sigma-Aldrich, Steinheim, Germany) for 10 to 15 min, followed by an increase in calcium concentration to 0.2 mM. After an additional 35 min of agitation in protease-free solution, rod-shaped single cardiomyocytes were harvested. The suspension was centrifuged, and the cells were resuspended in storage (“Kraftbrühe”, KB) medium (20 mM KCl, 10 mM KH2PO4, 25 mM glucose, 40 mM D-Mannitol, 70 mM K glutamate, 10 mM β-hydroxybutyrate, 20 mM taurine, 10 mM ethylene glycol tetraacetic acid (EGTA), and 1% albumin) until usage in patch-clamp experiments.
Patch-clamp glass pipettes were fabricated from borosilicate glass (1B120F-4; World Precision Instruments). After back-filling with patch-clamp internal solution (134 mM K gluconate, 6 mM NaCl, 1.2 mM MgCl2, 1 mM Mg-ATP, 10 mM HEPES, pH 7.2 with KOH), tip resistances ranged from 5 to 10 MΩ. All experiments were carried out at room temperature under constant superfusion with patch-clamp extracellular solution containing 137 mM NaCl, 5.4 mM KCl, 1 mM MgCl2, 2 mM CaCl2, 10 mM HEPES, 10 mM glucose (pH 7.3 with NaOH). AP-recordings were performed in current clamp mode: The holding current was adjusted such that the cell’s resting membrane potential was approximately −70 mV at baseline. APs were induced by short (5 ms) depolarizing current pulses at a rate of 0.5 Hz. Data was not adjusted for potential differences caused by liquid junctions, and no leak subtraction was performed.
Data acquisition and analysis were performed using the pCLAMP10 software (Axon Instruments) and statistical analysis was done using Prism 8 (GraphPad Software). Data is presented as the mean ± standard error of the mean (SEM). Statistical comparisons were made using Dunnett’s post hoc test. A p value of < 0.05 was considered significant.

human TASK-1 = human TASK-1 (Homo sapiens, UniProt O14649); experiment: Whole-cell patch-clamp in transfected HEK-293 cells, TASK-1; format: cell-based; set-up: human TASK-1 (KCNK3, NM_002246); expressed in transfected cells; settings: HEK293, +40 mV
Procedure: The human embryonic kidney 293 (HEK-293) cell line was obtained from the American Type Culture Collection. HEK-293 cells were cultured in Dulbecco’s modified Eagle’s medium (DMEM-F12, Invitrogen Life Technologies) supplemented with 5% (v/v) fetal bovine serum (FBS) (Thermo Fisher Scientific) and 1% antibiotics (penicillin 100 U/ml y streptomycin 100 μg/ml) (Gibco, Thermo Fisher). The cells were maintained at 37 °C and 5% CO2 atmosphere.
For the electrophysiological experiments, HEK-293 cells were transiently transfected with cDNA encoding human NaV1.5 (plasmid 145,374, Addgene), KV1.5 (NM_002234), and TASK-1 (NM_002246). […] The cells were incubated for 4 h in transfection medium OptiMEM (Invitrogen). […]
For Nav1.5, the effect of 6f at both concentrations was tested using a repetitive single test voltage pulse at −10 mV (during 20 ms) from a holding potential of −80 mV, with intervals of 5s between pulses. For Kv1.5 and TASK-1, ramp voltage protocols were applied with pulse intervals of 20 s, and the currents were analyzed at +40 mV. […]
After recording currents with stable amplitudes, the cells were treated with 6f and applied from the bath solution. Currents were continuously recorded during repetitive pulses until a stable effect was achieved. […] The inhibition percentage was calculated as follows: Inℎibition (%) = 100 ∗ (Icontrol − Idrug)/Icontrol.

Chain of human TASK-1 (O14649 whole entry): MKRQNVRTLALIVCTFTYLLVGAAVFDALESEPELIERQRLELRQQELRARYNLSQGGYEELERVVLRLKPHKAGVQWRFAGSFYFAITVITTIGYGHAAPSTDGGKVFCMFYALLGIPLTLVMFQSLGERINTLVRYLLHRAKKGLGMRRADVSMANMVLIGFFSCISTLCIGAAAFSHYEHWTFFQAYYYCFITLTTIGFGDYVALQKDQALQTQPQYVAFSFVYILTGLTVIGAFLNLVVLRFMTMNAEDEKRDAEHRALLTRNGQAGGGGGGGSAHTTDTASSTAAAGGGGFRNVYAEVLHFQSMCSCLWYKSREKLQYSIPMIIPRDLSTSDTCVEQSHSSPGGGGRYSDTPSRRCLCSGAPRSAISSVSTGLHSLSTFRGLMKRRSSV

inhibition at 10 µM (human TASK-1; 10 μM): 70%
inhibition at 100 µM (human TASK-1; 100 μM): 70%
Compound: CCCCN(CCCC)CC(=O)Nc1ccc(OC)cc1OC [Compound 6f, 2-(dibutylamine)-N-(2,4-dimethoxiphenyl)acetamide]
APD50 vs baseline ([1]; AF, 6.25 μM): increase in ADP50 with 6.25 μM 6f was significant
APD50 vs baseline ([1]; AF, 1, 6.25 and 12.5 μM): concentration-dependent prolongation trend
APD90 vs baseline ([1]; AF, 1, 6.25 and 12.5 μM): concentration-dependent prolongation trend
Action potential amplitude (APA) vs baseline ([1]; AF, 1, 6.25 and 12.5 μM): no changes
Maximal upstroke velocity vs baseline ([1]; AF, 1, 6.25 and 12.5 μM): no changes
Resting membrane potential (RMP) ([1]; AF, 1, 6.25 and 12.5 μM): significant concentration-dependent shift in the RMP to more negative values
